Source: patent US5455274A, “Hydroxyamidine derivatives” (Ciba-Geigy Corporation, priority 1992, dated 1995)

Columns and labels:
Human PMNs = experiment: LTB4-induced PMN aggregation; type: cell-based; conditions: in vitro, 20 nM LTB4, read-out: inhibits LTB4 -induced PMN aggregation, IC50
Method: Neutrophils (PMN's) are prepared from uncoagulated human venous blood. Blood is dispersed into 50 ml polypropylene tubes containing 15 ml of HESPAN (Dupont, Wilmington, Del.), and mixed. Tubes are allowed to stand at room temperature for 40 minutes until most of the red blood cells sediment. The supernatants are removed and centrifuged for 5-10 min at 400×g. The remaining pellets are diluted in 70 ml of Phosphate Buffered Saline without calcium and magnesium (PBS without metals; GIBCO, Grand Island, N.Y.) and 35 ml of this suspension are placed in each of two polypropylene tubes containing 15 ml of Ficoll-Paque (Sigma, St. Louis, Mo.). Gradients are then centrifuged for 15 minutes at 420×g. […]
Human PMNs are prepared as previously described. Neutrophil aggregation is assessed by monitoring the intensity of light passing through a suspension of cells (Craddock et al., J. Clin. Invest. 60: 260-264, 1977) using a Payton dual channel aggregometer (model 300BD). […] 5 μl of 2 μM LTB4 in PBS (20 nM final concentration) are added and the aggregation response monitored for 3-5 min, the time required for optimal response, Compounds are solubilized in 0.01M DMSO and then diluted in PBS to 0.001 M. 5 μl of compound solution is added along with cytochalasin B and cells as described above. Following the preincubation period 5 μl of 2 μM LTB4 are added and aggregation is measured. […]

[1] = system: LTB4 -induced neutropenia; experiment: LTB4-induced neutropenia in the rat; type: in vivo; conditions: dose of about 0.5 mg./Kg p.o., determined at four hours after administration
Method: LTB4 -Induced Neutropenia in the Rat
Male Sprague Dawley rats (crl: CDBR; Charles River, Wilmington, Mass.) (250-300 grams) are fasted overnight prior to the experiment. At least six animals are used per treatment group. Rats are given vehicle or compound either intravenously or orally and at intervals after dosing, neutrophil counts are determined from blood samples obtained just prior to and 20 seconds after intravenous infusion of 200 ng LTB4. In studies where compound is administered orally, drug is given by gavage. When drug is administered intravenously, rats are first anesthetized with 50 mg/kg i.p. of Sodium Pentabarbital. The jugular vein is exposed and cleaned of the surrounding tissue. At 3, 4 or 18 hours following administration of compound or vehicle by either route, blood samples are taken (0.3 ml of blood in 1.5 ml polypropylene microcentrifuge tube containing 0.01 mi 7.5% EDTA). Blood neutrophil counts are determined using a Technicon H-1 hematology instrument. Antagonism of the LTB4 -induced neutropenia response for the compounds tested is calculated.

SMILES: CC(C)N(C(=O)c1ccc(OCCCCCOc2ccc(C(N)=NO)cc2)cc1O)C(C)C [Example 1, 4-[5-[4-[amino(hydroxyimino)methyl]phenoxy]pentyloxy]-2-hydroxy-N,N-bis(1-methylethyl)benzamide]
- IC50 (Human PMNs): ~10 nM
- inhibition of LTB4 -induced neutropenia in the rat [1]: causes inhibition
